The text below walks through data of ChEMBL document CHEMBL3132769, “Fragment growing to retain or alter the selectivity of anchored kinase hinge-binding fragments” (Medchemcomm, 2014).

Structures are written as SMILES.

For test [1], the target named is Ribosomal protein S6 kinase alpha-4 (Homo sapiens) (UniProt O75676). Description: Inhibition of human full length MSK2 expressed in baculovirus assessed as substrate phosphorylation using fluorescence-labelled peptides as substrate at 2 uM after 90 mins by microfluidic peptide phosphorylation assay.
Sequence of Ribosomal protein S6 kinase alpha-4 (Homo sapiens) (O75676 whole entry, looked up): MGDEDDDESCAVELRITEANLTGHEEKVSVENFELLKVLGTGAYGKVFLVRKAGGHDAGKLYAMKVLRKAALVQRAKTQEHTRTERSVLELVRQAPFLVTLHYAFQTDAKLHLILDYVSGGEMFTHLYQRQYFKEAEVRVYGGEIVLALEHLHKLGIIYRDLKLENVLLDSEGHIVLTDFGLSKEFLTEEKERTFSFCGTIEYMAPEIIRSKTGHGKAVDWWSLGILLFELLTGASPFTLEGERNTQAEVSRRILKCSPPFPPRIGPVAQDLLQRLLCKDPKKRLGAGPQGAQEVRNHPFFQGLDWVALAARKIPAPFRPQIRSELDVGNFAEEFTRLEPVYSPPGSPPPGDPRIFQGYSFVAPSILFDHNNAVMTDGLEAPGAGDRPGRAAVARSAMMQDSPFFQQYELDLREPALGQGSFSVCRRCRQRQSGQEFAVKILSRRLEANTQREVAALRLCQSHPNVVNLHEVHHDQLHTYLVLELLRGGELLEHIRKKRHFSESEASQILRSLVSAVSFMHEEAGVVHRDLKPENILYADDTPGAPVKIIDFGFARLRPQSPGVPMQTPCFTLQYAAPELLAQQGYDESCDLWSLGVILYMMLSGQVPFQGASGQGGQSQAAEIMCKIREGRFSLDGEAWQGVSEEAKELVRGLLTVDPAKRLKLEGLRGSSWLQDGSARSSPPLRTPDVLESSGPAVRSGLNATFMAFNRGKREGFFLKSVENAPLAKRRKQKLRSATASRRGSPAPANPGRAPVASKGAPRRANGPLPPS
Test [2] deals with T1, Serine/threonine-protein kinase D3 (Homo sapiens) (UniProt O94806).
T1 sequence (whole entry): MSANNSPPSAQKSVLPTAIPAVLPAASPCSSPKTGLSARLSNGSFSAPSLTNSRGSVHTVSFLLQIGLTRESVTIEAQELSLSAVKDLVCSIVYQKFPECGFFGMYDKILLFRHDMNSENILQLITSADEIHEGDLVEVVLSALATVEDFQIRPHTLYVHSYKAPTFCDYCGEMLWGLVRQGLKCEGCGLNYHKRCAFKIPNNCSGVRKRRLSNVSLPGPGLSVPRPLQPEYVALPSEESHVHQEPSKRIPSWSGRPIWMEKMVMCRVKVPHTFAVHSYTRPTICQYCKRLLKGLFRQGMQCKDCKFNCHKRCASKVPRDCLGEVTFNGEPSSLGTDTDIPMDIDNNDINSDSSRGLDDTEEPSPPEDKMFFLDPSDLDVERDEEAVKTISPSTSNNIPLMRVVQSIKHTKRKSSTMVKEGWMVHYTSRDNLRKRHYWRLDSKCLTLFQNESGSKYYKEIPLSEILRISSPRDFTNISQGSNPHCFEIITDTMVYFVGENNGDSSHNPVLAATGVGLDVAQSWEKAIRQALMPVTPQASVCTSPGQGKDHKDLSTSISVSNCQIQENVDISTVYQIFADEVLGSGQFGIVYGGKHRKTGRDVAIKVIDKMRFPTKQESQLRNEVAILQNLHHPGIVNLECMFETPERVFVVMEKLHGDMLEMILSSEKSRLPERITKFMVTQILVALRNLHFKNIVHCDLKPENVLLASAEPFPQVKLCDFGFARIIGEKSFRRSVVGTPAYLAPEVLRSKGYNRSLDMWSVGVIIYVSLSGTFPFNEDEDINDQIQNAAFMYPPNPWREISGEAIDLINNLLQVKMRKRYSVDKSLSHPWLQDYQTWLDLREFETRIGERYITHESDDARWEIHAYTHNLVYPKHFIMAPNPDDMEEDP
Description: Inhibition of human full length PKD3 expressed in baculovirus assessed as substrate phosphorylation using fluorescence-labelled peptides as substrate at 2 uM after 90 mins by microfluidic peptide phosphorylation assay.

For test [3], the target named is Tyrosine-protein kinase Lck (Homo sapiens) (UniProt P06239). Particulars: 0.1 uM.
Sequence of Tyrosine-protein kinase Lck (Homo sapiens) (P06239 2-509 limits assumed): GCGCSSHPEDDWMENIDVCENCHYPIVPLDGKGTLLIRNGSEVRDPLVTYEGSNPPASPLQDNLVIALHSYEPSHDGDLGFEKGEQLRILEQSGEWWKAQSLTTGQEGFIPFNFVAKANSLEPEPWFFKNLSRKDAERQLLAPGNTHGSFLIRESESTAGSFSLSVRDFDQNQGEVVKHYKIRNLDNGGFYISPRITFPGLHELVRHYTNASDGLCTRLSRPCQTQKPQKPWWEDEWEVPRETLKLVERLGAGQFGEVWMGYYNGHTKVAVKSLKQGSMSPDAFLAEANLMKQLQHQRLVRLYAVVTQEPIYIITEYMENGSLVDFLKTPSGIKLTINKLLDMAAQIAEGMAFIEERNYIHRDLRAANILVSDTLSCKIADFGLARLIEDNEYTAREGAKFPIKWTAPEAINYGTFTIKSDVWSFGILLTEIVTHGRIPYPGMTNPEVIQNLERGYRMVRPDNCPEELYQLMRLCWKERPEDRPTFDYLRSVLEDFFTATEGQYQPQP
Description: Inhibition of human full length LCK expressed in baculovirus assessed as substrate phosphorylation using fluorescence-labelled peptides as substrate at 0.1 uM after 90 mins by microfluidic peptide phosphorylation assay
Test [4] has as its target Fibroblast growth factor receptor 1 (Homo sapiens) (UniProt P11362). Description: Inhibition of human FGFR1 catalytic domain expressed in baculovirus assessed as substrate phosphorylation using fluorescence-labelled peptides as substrate at 0.2 uM after 90 mins by microfluidic peptide phosphorylation assay.
Test [5] concerns the target Serine/threonine-protein kinase Chk2 (Homo sapiens) (UniProt O96017). Description: Inhibition of human full length CHK2 expressed in baculovirus assessed as substrate phosphorylation using fluorescence-labelled peptides as substrate at 0.06 uM after 90 mins by microfluidic peptide phosphorylation assay.
Test [6] deals with Serine/threonine-protein kinase pim-1 (Homo sapiens) (UniProt P11309). Description: Inhibition of human full length PIM1 expressed in baculovirus assessed as substrate phosphorylation using fluorescence-labelled peptides as substrate at 9 uM after 90 mins by microfluidic peptide phosphorylation assay.
Sequence of Serine/threonine-protein kinase pim-1 (Homo sapiens) (P11309 whole entry, looked up, the tested form may be a part): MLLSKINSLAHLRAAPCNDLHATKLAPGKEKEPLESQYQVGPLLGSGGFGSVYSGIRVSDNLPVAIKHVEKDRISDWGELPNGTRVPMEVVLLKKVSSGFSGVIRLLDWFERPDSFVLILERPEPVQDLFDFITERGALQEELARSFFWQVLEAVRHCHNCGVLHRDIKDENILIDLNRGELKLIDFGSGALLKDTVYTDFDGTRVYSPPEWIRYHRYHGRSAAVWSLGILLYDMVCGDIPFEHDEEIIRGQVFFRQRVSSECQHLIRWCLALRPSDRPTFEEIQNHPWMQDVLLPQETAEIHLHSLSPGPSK
The target of test [7] is Vascular endothelial growth factor receptor 2 (Homo sapiens) (UniProt P35968). Description: Inhibition of human KDR cytoplasmic domain expressed in baculovirus assessed as substrate phosphorylation using fluorescence-labelled peptides as substrate at 95 uM after 90 mins by microfluidic peptide phosphorylation assay.
Sequence of Vascular endothelial growth factor receptor 2 (Homo sapiens) (P35968 whole entry, the tested form may be a part): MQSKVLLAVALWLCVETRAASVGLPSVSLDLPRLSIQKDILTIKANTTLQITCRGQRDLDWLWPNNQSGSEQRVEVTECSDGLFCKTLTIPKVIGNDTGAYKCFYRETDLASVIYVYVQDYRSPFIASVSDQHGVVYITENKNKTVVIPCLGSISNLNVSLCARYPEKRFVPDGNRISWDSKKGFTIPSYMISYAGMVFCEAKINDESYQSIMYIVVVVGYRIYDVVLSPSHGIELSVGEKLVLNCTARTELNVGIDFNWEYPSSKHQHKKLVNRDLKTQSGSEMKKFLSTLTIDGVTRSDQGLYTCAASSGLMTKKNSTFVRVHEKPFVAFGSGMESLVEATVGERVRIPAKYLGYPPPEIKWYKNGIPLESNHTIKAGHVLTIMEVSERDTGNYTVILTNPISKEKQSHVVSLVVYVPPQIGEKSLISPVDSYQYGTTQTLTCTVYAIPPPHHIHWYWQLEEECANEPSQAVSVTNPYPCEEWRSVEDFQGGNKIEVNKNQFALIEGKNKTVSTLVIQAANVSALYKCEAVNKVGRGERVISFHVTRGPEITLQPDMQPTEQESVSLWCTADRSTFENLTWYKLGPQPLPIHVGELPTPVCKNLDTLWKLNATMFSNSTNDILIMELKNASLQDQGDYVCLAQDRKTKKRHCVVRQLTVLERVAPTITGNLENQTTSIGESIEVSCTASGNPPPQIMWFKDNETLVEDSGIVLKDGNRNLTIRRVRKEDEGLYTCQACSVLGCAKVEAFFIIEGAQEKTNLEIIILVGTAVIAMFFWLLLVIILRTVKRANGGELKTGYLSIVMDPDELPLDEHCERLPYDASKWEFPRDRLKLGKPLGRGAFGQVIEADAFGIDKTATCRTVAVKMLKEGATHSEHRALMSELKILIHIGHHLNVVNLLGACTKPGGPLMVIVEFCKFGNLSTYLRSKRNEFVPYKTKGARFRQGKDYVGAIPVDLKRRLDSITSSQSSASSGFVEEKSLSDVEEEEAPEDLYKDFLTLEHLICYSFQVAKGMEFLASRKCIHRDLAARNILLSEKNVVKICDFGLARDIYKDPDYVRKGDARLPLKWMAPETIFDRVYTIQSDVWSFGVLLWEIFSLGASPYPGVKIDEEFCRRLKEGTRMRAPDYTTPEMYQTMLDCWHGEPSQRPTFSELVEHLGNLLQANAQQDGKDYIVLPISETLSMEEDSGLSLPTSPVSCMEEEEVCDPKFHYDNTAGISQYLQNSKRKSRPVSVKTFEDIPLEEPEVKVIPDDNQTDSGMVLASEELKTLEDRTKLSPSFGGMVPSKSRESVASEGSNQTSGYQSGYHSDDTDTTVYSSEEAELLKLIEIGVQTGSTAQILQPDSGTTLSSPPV
Test [8] deals with Ribosomal protein S6 kinase alpha-2 (Homo sapiens) (UniProt Q15349). Briefly: Inhibition of human full length RSK3 expressed in baculovirus assessed as substrate phosphorylation using fluorescence-labelled peptides as substrate at 8 uM after 90 mins by microfluidic peptide phosphorylation assay.
Sequence of Ribosomal protein S6 kinase alpha-2 (Homo sapiens) (Q15349 whole entry, the tested form may be a part): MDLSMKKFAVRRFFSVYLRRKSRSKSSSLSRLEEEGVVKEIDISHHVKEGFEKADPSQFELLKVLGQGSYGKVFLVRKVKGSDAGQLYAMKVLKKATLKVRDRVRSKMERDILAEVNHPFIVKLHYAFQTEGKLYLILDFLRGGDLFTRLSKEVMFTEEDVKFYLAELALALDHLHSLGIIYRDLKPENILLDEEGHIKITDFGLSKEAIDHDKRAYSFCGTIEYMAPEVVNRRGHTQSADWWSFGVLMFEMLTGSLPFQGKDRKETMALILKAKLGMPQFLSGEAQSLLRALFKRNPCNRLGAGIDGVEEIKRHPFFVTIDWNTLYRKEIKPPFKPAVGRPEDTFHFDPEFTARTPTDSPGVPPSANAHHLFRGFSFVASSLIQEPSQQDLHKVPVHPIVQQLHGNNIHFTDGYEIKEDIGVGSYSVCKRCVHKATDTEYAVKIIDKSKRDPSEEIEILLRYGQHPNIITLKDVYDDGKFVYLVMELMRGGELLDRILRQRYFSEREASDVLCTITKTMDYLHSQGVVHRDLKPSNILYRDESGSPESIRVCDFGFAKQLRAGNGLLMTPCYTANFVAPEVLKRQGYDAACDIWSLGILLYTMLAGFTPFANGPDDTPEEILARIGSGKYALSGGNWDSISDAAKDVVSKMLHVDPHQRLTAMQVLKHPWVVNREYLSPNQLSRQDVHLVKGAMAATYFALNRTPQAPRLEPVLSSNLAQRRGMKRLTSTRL
Test [9] deals with Tyrosine-protein kinase ABL1 (Homo sapiens), P00519 [Q252H]. Description: Inhibition of human truncated ABL Q252H mutant expressed in baculovirus assessed as substrate phosphorylation using fluorescence-labelled peptides as substrate at 8 uM after 90 mins by microfluidic peptide phosphorylation assay.
Test [10] has as its target Ribosomal protein S6 kinase alpha-4 (Homo sapiens) (UniProt O75676). Description: Inhibition of human full length MSK2 expressed in baculovirus assessed as substrate phosphorylation using fluorescence-labelled peptides as substrate at 8 uM after 90 mins by microfluidic peptide phosphorylation assay.
Test [11] addresses T1, Serine/threonine-protein kinase D3 (Homo sapiens). Briefly: Inhibition of human full length PKD3 expressed in baculovirus assessed as substrate phosphorylation using fluorescence-labelled peptides as substrate at 70 uM after 90 mins by microfluidic peptide phosphorylation assay.
Test [12] addresses Casein kinase I isoform delta (Homo sapiens) (UniProt P48730). Description: Inhibition of human CK1D catalytic domain expressed in Escherichia coli cell assessed as substrate phosphorylation using fluorescence-labelled peptides as substrate at 70 uM after 90 mins by microfluidic peptide phosphorylation assay.
The target in test [13] is Ribosomal protein S6 kinase alpha-2 (Homo sapiens) (UniProt Q15349). Briefly: Inhibition of human full length RSK3 expressed in baculovirus assessed as substrate phosphorylation using fluorescence-labelled peptides as substrate at […] after 90 mins by microfluidic peptide phosphorylation assay.
Test [14] addresses Aurora kinase B (Homo sapiens) (UniProt Q96GD4). Description: Inhibition of human full length AurB expressed in baculovirus assessed as substrate phosphorylation using fluorescence-labelled peptides as substrate at […] after 90 mins by microfluidic peptide phosphorylation assay.
Test [15] has as its target T2, MAP kinase-activated protein kinase 5 (Homo sapiens) (UniProt Q8IW41).
T2 sequence (whole entry): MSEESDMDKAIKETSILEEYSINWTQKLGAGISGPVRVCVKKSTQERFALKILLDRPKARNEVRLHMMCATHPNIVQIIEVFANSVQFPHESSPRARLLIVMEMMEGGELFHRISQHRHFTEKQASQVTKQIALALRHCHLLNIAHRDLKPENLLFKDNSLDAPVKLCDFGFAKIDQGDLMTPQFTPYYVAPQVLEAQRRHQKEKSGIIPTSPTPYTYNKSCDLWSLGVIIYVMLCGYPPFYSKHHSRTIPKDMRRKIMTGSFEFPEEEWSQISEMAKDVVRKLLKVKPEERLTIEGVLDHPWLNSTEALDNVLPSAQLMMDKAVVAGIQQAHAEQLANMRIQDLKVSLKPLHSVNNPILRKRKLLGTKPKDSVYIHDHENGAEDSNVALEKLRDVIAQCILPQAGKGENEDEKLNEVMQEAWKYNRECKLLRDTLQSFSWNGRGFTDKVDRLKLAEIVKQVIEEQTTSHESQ
Description: Inhibition of human full length PRAK expressed in baculovirus assessed as substrate phosphorylation using fluorescence-labelled peptides as substrate at 1000 uM after 90 mins by microfluidic peptide phosphorylation assay.

Test [16] deals with Tyrosine-protein kinase ABL1 (Homo sapiens), P00519 [H396P]. Briefly: Inhibition of human truncated ABL H396P mutant expressed in baculovirus assessed as substrate phosphorylation using fluorescence-labelled peptides as substrate at 1000 uM after 90 mins by microfluidic peptide phosphorylation assay.

Sequence of Aurora kinase B (Homo sapiens) (Q96GD4 whole entry): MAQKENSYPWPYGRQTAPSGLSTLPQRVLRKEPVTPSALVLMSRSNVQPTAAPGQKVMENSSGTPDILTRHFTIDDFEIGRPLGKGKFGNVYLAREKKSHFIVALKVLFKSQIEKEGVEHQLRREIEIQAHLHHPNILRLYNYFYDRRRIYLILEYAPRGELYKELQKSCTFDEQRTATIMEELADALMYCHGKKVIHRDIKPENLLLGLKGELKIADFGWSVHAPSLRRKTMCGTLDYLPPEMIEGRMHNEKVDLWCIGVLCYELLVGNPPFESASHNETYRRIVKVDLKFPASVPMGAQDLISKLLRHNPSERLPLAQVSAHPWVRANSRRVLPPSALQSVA
Sequence of Casein kinase I isoform delta (Homo sapiens) (P48730 whole entry, looked up, the tested form may be a part, canonical isoform): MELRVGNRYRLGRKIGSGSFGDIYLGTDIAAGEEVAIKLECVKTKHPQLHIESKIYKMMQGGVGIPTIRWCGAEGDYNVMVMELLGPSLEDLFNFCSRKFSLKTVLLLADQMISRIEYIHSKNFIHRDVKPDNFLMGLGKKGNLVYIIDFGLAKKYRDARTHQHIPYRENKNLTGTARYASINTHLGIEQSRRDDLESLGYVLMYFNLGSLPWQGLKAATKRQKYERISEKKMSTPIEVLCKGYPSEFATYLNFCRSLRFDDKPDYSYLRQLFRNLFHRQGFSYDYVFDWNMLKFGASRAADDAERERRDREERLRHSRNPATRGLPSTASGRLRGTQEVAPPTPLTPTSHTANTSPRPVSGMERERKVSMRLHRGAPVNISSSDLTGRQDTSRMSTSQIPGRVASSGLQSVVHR
Sequence of Serine/threonine-protein kinase Chk2 (Homo sapiens) (O96017 whole entry): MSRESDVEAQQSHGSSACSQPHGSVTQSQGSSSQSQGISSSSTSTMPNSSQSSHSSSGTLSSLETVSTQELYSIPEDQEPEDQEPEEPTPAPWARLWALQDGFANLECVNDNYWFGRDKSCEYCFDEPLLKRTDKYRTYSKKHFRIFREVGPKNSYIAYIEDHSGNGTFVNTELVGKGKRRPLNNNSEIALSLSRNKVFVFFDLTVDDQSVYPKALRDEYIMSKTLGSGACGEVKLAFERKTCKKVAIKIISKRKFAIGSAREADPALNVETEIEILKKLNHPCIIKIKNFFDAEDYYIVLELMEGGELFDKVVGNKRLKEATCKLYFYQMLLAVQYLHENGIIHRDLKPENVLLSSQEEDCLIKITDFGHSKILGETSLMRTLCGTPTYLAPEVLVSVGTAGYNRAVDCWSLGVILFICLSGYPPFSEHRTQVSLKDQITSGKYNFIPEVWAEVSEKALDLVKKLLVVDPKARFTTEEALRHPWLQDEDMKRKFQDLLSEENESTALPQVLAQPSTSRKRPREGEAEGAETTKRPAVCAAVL

The inhibition is the share of the control response that was lost under treatment. For the compound `NC1CCN(c2ncnc3[nH]ccc23)CC1`, the inhibition in [1] came to 15%; in [2], 0%.

The compound `C[C@H](CN(C)C)Oc1nc(Nc2cc3cccc(Cl)c3cn2)cnc1C#N` came in with an inhibition in test [3] of 0%.

For the compound `Clc1ccc(C2(c3ccc(-c4ncnc5[nH]cnc45)cc3)CCNCC2)cc1`, in test [4], the inhibition was found to be 13%.

As for `NC1(Cc2ccc(Cl)cc2)CCN(c2ncnc3[nH]ccc23)CC1`, in test [5], the inhibition was determined as 0%.

Regarding `NCC1CN(c2ncnc3[nH]c4cnccc4c23)CCO1` (stereo unspecified), the inhibition in test [6] is 36.5%.

As for `NCCc1ccc(-c2ncnc3[nH]cnc23)cc1`, the inhibition in [7] turned out to be 72.5%.

Regarding `NCC1CCN(c2ncnc3[nH]ccc23)CC1`, the inhibition amounted to 28% in test [8], 87.5% in test [9] and 50% in test [10].

For the compound `CNCc1ccc(-c2ncnc3[nH]cnc23)cc1`, the inhibition in test [11] came out at 72.5%; in test [12] it was 46%.

As for `COC(=O)c1cnc(Nc2cnc(C#N)cn2)cc1NCC1CCNCC1`, the figures for the inhibition in [13] and in [14] were 44% and 4%, respectively.

For `c1cnc2[nH]ccc2c1`, the inhibition worked out at 77% in test [15] and 44.5% in [16].
